Structures are written as SMILES.

Assay [1] addresses T1, 11β-HSD1 (Homo sapiens, UniProt P28845).
T1 construct: endogenous in cells; host or cells: primary human aortic smooth muscle cells (AoSMC), induced with hTNFα
Nature of the assay: Human aortic smooth muscle cell assay (cortisone to cortisol conversion). The class given is cell-based. Particulars: primary human aortic smooth muscle cells (AoSMC), hTNFα-induced 11β-HSD1, cortisol measured by immunoassay. The procedure: Human Aortic Smooth Muscle Cell Assay
Primary human aortic smooth muscle cells (AoSMC) are cultured in 5% FBS growth medium to a passage number of 6, then pelleted by centrifugation and resuspended at a density of 9×10^4 cells/mL in 0.5% FBS assay medium containing 12 ng/mL hTNFα to induce expression of 11β-HSD1. Cells are seeded into 96-well tissue culture assay plates at 100 μL/well (9×10^3 cells/well) and incubated for 48 hours at 37° C., 5% CO2. Following induction, cells are incubated for 4 hours at 37° C., 5% CO2 in assay medium containing test compounds then treated with 10 μL/well of 10 μM cortisone solubilized in assay medium, and incubated for 16 hours at 37° C., 5% CO2. Medium from each well is transferred to a plate for subsequent analysis of cortisol using a competitive fluorescence resonance time resolved immunoassay. In solution, an allophycocyanin (APC)-cortisol conjugate and free cortisol analyte compete for binding to a mouse anti-cortisol antibody/Europium (Eu)-anti mouse IgG complex. Higher levels of free cortisol result in diminishing energy transfer from the Europium-IgG to the APC-cortisol complex resulting in less APC fluorescence. Fluorescent intensities for Europium and APC are measured using a LJL Analyst AD. Europium and APC excitation is measured using 360 nm excitation and 615 nm and 650 nm emission filters respectively. Time resolved parameters for Europuium were 1000 μs integration time with a 200 μs delay. APC parameters are set at 150 μs integration time with a 50 μs delay. Fluorescent intensities measured for APC are modified by dividing by the Eu fluorescence (APC/Eu). This ratio is then used to determine the unknown cortisol concentration by interpolation using a cortisol standard curve fitted with a 4-parameter logistic equation. These concentrations are then used to determine compound activity by plotting concentration versus % inhibition, fitting with a 4-parameter curve and reporting the IC50.

For assay [2], the target named is T2, 11β-HSD1 (Mus musculus, UniProt P50172).
T2 construct: tissue Harlan Sprague Dawley; host or cells: whole animal, male C57BL/6 mice; serum cortisol read-out
T2 sequence (P50172 whole entry): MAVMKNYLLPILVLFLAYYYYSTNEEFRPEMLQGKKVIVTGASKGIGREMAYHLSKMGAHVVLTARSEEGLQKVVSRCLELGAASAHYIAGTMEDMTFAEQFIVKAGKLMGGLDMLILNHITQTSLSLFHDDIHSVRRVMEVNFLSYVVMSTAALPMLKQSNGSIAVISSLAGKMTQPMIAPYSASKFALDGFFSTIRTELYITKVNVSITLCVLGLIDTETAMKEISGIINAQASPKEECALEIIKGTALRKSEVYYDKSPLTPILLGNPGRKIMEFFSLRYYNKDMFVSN
Nature of the assay: Acute in vivo cortisone conversion assay. Particulars: male C57BL/6 mice, oral dose 10 mg/kg, cortisone challenge 16 hours post dose, serum cortisol by LC-MS/MS. The procedure:
Acute In Vivo Cortisone Conversion Assay
In general, compounds are dosed orally into mice, the mice are challenged with a subcutaneous injection of cortisone at a set timepoint after compound injection, and the blood of each animal is collected some time later. Separated serum is then isolated and analyzed for levels of cortisone and cortisol by LC-MS/MS, followed by calculation of mean cortisol and percent inhibition of each dosing group. Specifically, male C57BL/6 mice are obtained from Harlan Sprague Dawley at average weight of 25 grams. Exact weights are taken upon arrival and the mice randomized into groups of similar weights. Compounds are prepared in 1% w-w HEC, 0.25% w-w polysorbate 80, 0.05% w-w Dow Corning antifoam #1510-US at various doses based on assumed average weight of 25 grams. Compounds are dosed orally, 200 μl per animal, followed by a subcutaneous dose, 200 μl per animal, of 30 mg/kg cortisone at 1 to 24 hours post compound dose. At 10 minutes post cortisone challenge, each animal is euthanized for 1 minute in a CO2 chamber, followed by blood collection via cardiac puncture into serum separator tubes. Once fully clotted, tubes are spun at 2500×g, 4° C. for 15 minutes, the serum transferred to wells of 96-well plates (Corning Inc, Costar #4410, cluster tubes, 1.2 ml, polypropylene), and the plates are frozen at −20° C. until analysis by LC-MS/MS. […]

T1 sequence (P28845 whole entry): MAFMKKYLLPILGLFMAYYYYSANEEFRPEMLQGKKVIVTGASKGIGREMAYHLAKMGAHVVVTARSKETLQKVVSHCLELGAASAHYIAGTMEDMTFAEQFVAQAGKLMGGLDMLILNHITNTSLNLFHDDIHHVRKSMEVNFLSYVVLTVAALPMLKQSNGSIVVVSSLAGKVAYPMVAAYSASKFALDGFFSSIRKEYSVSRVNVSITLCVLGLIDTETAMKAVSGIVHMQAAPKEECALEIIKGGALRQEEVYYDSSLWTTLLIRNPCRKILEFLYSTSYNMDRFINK

`CNC(=O)N1CCC(N2CC[C@@H](Cc3c(Cl)cc(-c4ccc(F)cc4)cc3Cl)C2=O)CC1` [Example 6, 4-[(R)-3-(3,5-Dichloro-4′-fluoro-biphenyl-4-ylmethyl)-2-oxo-pyrrolidin-1-yl]-piperidine-1-carboxylic acid methylamide] came in with an IC50 in assay [1] of 73 nM. The “% Inhibition after 16 hours (dose of 10 (mg/kg))” value in assay [2] is listed as 65%.
Consider `COC(=O)N1CCC(N2CC[C@@H](Cc3c(Cl)cc(-c4ccc(F)cc4)cc3Cl)C2=O)CC1` [Example 3, 4-[(R)-3-(3,5-Dichloro-4′-fluoro-biphenyl-4-ylmethyl)-2-oxo-pyrrolidin-1-yl]-piperidine-1-carboxylic acid methyl ester], for which it took 84.5 nM to reach half-maximal inhibition in assay [1] (IC50).
Regarding `COC(=O)N1CCC(N2CC[C@@H](Cc3c(Cl)cc(-c4ccc(C(=O)N5CCC(C(F)(F)F)CC5)cc4)cc3Cl)C2=O)CC1` [Example 4, 4-{(R)-3-[3,5-Dichloro-4′-(4-trifluoromethyl-piperidine-1-carbonyl)-biphenyl-4-ylmethyl]-2-oxo-pyrrolidin-1-yl}-piperidine-1-carboxylic acid methyl ester], half-maximal inhibition in assay [1] (IC50) was put at 231 nM. In addition, the “% Inhibition after 16 hours (dose of 10 (mg/kg))” value in assay [2] is recorded as 92%.
Take `CS(=O)(=O)N1CCC(N2CC[C@@H](Cc3c(Cl)cc(-c4ccc(F)cc4)cc3Cl)C2=O)CC1` [Example 1, (R)-3-(3,5-Dichloro-4′-fluoro-biphenyl-4-ylmethyl)-1-(1-methanesulfonyl-piperidin-4-yl)-pyrrolidin-2-one]: inhibition in assay [1] was half-maximal at 85 nM (IC50).
The same measure, in the same setting: in the case of `O=C(Nc1ccccc1)N1CCC(N2CC[C@@H](Cc3c(Cl)cc(-c4ccc(F)cc4)cc3Cl)C2=O)CC1` [Example 8, 4-[(R)-3-(3,5-Dichloro-4′-fluoro-biphenyl-4-ylmethyl)-2-oxo-pyrrolidin-1-yl]-piperidine-1-carboxylic acid phenylamide] it was 159 nM.

For orientation: IC50 means the concentration needed to halve the response being measured. The low end stands for greater potency in that assay, the high end for weaker potency in that assay.
